Here are results for 17 molecules from patent US11878973B2, “Bicyclic compounds and their uses” (NOVARTIS AG, priority 2021, dated 2024).

For assay [1], the system named is SW48 cells. Nature of the assay: Proliferation assay SW48 (CellTiterGlo, 96 hours). (Cellular ATP, detected with luciferase, serves as a proxy for viable cell number.)
The subject of assay [2] is DLD1-WRN-KO cells. The assay can be described thus: Proliferation assay DLD1-WRN-KO (CellTiterGlo, 96 hours; off-target effects). As to conditions: read-out: Proliferation Assay DLD1-WRN-KO (GI50).
The target of assay [3] is WRN helicase (Homo sapiens (Human), UniProt Q14191). The assay can be described thus: In vitro enzymatic activity assay on WRN helicase (DNA dependent ATPase assay, ADP-Glo). The format is biochemical. As to conditions: geometric means of at least 2 determinations; read-out: WRN ATPase Activity (IC50). The gist of the method:
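DNA-dependent ATPase activity was measured by ADP-Glo luminescent ADP detection after a 30-min room-temperature reaction. The reaction contained 10 nM WRN (residues N517-P1238), 0.2 nM FLAP26 and 300 µM ATP at pH 7.5 with 2 mM MgCl2. Compounds were tested as 10-point half-log series in duplicate; IC50 values are geometric means from at least two independent experiments.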
A general note: ADP-Glo turns the ADP formed in a reaction into a luminescent signal.

Setting [4] is: Homo sapiens, SW48, read-out: Proliferation Assay SW48 (GI50).

Structures are written as SMILES. Like-named read-outs stand apart in the source and are kept apart here. Bounds are passed on as bounds.

Chain of WRN helicase (Q14191 517-1238): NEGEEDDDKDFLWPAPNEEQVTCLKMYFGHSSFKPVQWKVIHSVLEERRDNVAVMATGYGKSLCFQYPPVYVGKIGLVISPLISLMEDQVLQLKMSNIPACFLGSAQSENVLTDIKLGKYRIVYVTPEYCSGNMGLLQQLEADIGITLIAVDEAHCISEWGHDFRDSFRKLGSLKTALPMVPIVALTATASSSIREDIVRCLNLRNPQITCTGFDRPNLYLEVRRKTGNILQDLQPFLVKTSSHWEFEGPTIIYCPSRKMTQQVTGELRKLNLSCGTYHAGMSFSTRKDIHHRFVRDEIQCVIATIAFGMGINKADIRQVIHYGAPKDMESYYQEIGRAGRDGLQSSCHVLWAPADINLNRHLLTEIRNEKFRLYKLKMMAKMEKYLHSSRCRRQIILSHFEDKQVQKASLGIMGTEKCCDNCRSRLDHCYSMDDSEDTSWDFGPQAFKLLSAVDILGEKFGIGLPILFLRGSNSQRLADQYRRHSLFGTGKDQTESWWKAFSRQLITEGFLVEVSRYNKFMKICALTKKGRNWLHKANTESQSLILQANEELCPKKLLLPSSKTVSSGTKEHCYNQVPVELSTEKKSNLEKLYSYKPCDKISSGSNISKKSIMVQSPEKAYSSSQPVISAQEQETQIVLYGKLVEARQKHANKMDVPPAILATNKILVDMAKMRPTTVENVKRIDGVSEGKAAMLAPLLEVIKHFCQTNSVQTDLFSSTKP

Regarding `CCc1c(N2CCN(C(=O)c3ncnc(C)c3O)CC2)c(=O)n2nc(C3=CC[C@H](F)CO3)nc2n1CC(=O)Nc1ccc(C(F)(F)F)cc1Cl` [Example 127, (S)—N-(2-chloro-4-(trifluoromethyl)phenyl)-2-(5-ethyl-2-(3-fluoro-3,4-dihydro-2H-pyran-6-yl)-6-(4-(5-hydroxy-6-methylpyrimidine-4-carbonyl)piperazin-1-yl)-7-oxo-[1,2,4]triazolo[1,5-a]pyrimidin-4(7H)-yl)acetamide], the GI50 in assay [1] (setting [4]) was 90 nM; in assay [2] (Homo sapiens), > 10 µM. Moreover, the concentration for half-maximal inhibition (IC50) (commonly the point on the concentration scale where inhibition reaches its midpoint) in assay [3] came to 80 nM.
Take `CCc1c(N2CCN(C(=O)c3ncccc3O)CC2)c(=O)n2nc(C3=CCCOC3)nc2n1CC(=O)Nc1ccc(C(F)(F)F)cc1C` [Example 114, 2-(2-(5,6-dihydro-2H-pyran-3-yl)-5-ethyl-6-(4-(3-hydroxypicolinoyl)piperazin-1-yl)-7-oxo-[1,2,4]triazolo[1,5-a]pyrimidin-4(7H)-yl)-N-(2-methyl-4-(trifluoromethyl)phenyl)acetamide]: the GI50 was 180 nM in assay [1] (setting [4]) and > 10 µM in assay [2] (Homo sapiens). The IC50 in assay [3] turned out to be 90 nM.
For `CCc1c(N2CCN(C(=O)c3ncc(Cl)cc3O)CC2)c(=O)n2nc(C3=CCOCC3)nc2n1CC(=O)Nc1ccc(C(F)(F)F)cc1C` [Example 65, 2-(6-(4-(5-chloro-3-hydroxypicolinoyl)piperazin-1-yl)-2-(3,6-dihydro-2H-pyran-4-yl)-5-ethyl-7-oxo-[1,2,4]triazolo[1,5-a]pyrimidin-4(7H)-yl)-N-(2-methyl-4-(trifluoromethyl)phenyl)acetamide], the GI50 was determined as 80 nM in assay [1] (setting [4]) and 7.8 µM in assay [2] (Homo sapiens). In assay [3], the IC50 worked out at 50 nM.
In the case of `CCc1c(N2CCN(C(=O)c3ncnc(C)c3O)CC2)c(=O)n2nc(C3=CCCCO3)nc2n1CC(=O)Nc1ccc(C(F)(F)F)nc1C` [Example 31, 2-(2-(3,4-dihydro-2H-pyran-6-yl)-5-ethyl-6-(4-(5-hydroxy-6-methylpyrimidine-4-carbonyl)piperazin-1-yl)-7-oxo-[1,2,4]triazolo[1,5-a]pyrimidin-4(7H)-yl)-N-(2-methyl-6-(trifluoromethyl)pyridin-3-yl)acetamide], the figures for the GI50 in assay [1] (setting [4]) and in assay [2] (Homo sapiens) were 320 nM and > 10 µM, respectively. For the same molecule, in assay [3], the IC50 stood at 230 nM.
In the same order, the values of `CCc1c(N2CCN(C(=O)c3nccc(Cl)c3O)CC2)c(=O)n2nc(C3=COCCO3)nc2n1CC(=O)Nc1ccc(C(F)(F)F)c(F)c1C` [Example 79, 2-(6-(4-(4-chloro-3-hydroxypicolinoyl)piperazin-1-yl)-2-(5,6-dihydro-1,4-dioxin-2-yl)-5-ethyl-7-oxo-[1,2,4]triazolo[1,5-a]pyrimidin-4(7H)-yl)-N-(3-fluoro-2-methyl-4-(trifluoromethyl)phenyl)acetamide] are 500 nM, > 10 µM and 40 nM.
For `CCc1c(N2CCN(C(=O)c3nccc(F)c3O)CC2)c(=O)n2nc(N3CCOCC3)nc2n1CC(=O)Nc1ccc(C(F)(F)F)cc1Cl` [Example 3, N-(2-chloro-4-(trifluoromethyl)phenyl)-2-(5-ethyl-6-(4-(4-fluoro-3-hydroxypicolinoyl)piperazin-1-yl)-2-morpholino-7-oxo-[1,2,4]triazolo[1,5-a]pyrimidin-4(7H)-yl)acetamide], the results for the GI50 in assay [1] (setting [4]) and in assay [2] (Homo sapiens) were 90 nM and > 10 µM, respectively. Besides, the IC50 in assay [3] was 70 nM.
In the case of `CCc1c(N2CCN(C(=O)c3ncnc(C)c3O)CC2)c(=O)n2nc(C3=CCOCC3)nc2n1CC(=O)Nc1ccc(S(F)(F)(F)(F)F)cc1C` [Example 100, 2-(2-(3,6-dihydro-2H-pyran-4-yl)-5-ethyl-6-(4-(5-hydroxy-6-methylpyrimidine-4-carbonyl)piperazin-1-yl)-7-oxo-[1,2,4]triazolo[1,5-a]pyrimidin-4(7H)-yl)-N-(2-methyl-4-(pentafluorosulfanyl)phenyl)acetamide], the GI50 is 30 nM in assay [1] (setting [4]) and > 10 µM in assay [2] (Homo sapiens). Further, the half-maximal inhibitory concentration (IC50) in assay [3] turned out to be 60 nM.
As to `Cc1c(N2CCN(C(=O)c3ncccc3O)CC2)c(=O)n2nc(C3=CCOCC3)nc2n1CC(=O)Nc1ccc(C(F)(F)F)cc1` [Example 117, 2-(2-(3,6-dihydro-2H-pyran-4-yl)-6-(4-(3-hydroxypicolinoyl)piperazin-1-yl)-5-methyl-7-oxo-[1,2,4]triazolo[1,5-a]pyrimidin-4(7H)-yl)-N-(4-(trifluoromethyl)phenyl)acetamide], the GI50 in assay [1] (setting [4]) is 260 nM; in assay [2] (Homo sapiens) it was > 10 µM. For the same molecule, the IC50 in assay [3] was 40 nM.
Regarding `CCc1c(N2CCN(C(=O)c3nccc(Cl)c3O)CC2)c(=O)n2nc(C3=CCOCC3)nc2n1CC(=O)Nc1ccc(C(F)(F)F)nc1Cl` [Example 46, 2-(6-(4-(4-chloro-3-hydroxypicolinoyl)piperazin-1-yl)-2-(3,6-dihydro-2H-pyran-4-yl)-5-ethyl-7-oxo-[1,2,4]triazolo[1,5-a]pyrimidin-4(7H)-yl)-N-(2-chloro-6-(trifluoromethyl)pyridin-3-yl)acetamide], the results for the GI50 in assay [1] (setting [4]) and in assay [2] (Homo sapiens) were 110 nM and > 10 µM, respectively. In assay [3], the IC50 was found to be 110 nM.
For `CCc1c(N2CCN(C(=O)c3ncnc(C)c3O)CC2)c(=O)n2nc(C3=CCOCC3)nc2n1CC(=O)Nc1ccc(C(F)(F)F)c(F)c1C` [Example 93, 2-(2-(3,6-dihydro-2H-pyran-4-yl)-5-ethyl-6-(4-(5-hydroxy-6-methylpyrimidine-4-carbonyl)piperazin-1-yl)-7-oxo-[1,2,4]triazolo[1,5-a]pyrimidin-4(7H)-yl)-N-(3-fluoro-2-methyl-4-(trifluoromethyl)phenyl)acetamide], the results for the GI50 in assay [1] (setting [4]) and in assay [2] (Homo sapiens) were 70 nM and > 10 µM, respectively. Further, the IC50 in assay [3] was found to be 80 nM.
The matching figures for `CCc1cc(C)c(NC(=O)Cn2c(CC)c(N3CCN(C(=O)c4ncccc4O)CC3)c(=O)n3nc(C4=CCOCC4)nc23)cc1Cl` [Example 104, N-(5-chloro-4-ethyl-2-methylphenyl)-2-(2-(3,6-dihydro-2H-pyran-4-yl)-5-ethyl-6-(4-(3-hydroxypicolinoyl)piperazin-1-yl)-7-oxo-[1,2,4]triazolo[1,5-a]pyrimidin-4(7H)-yl)acetamide]: 50 nM, > 10 µM and 70 nM.
For `CCc1c(N2CCN(C(=O)c3ncccc3O)CC2)c(=O)n2nc(N3CCOCC3)nc2n1CC(=O)Nc1cc(F)c(C(F)(F)F)cc1Cl` [Example 7, N-(2-chloro-5-fluoro-4-(trifluoromethyl)phenyl)-2-(5-ethyl-6-(4-(3-hydroxypicolinoyl)piperazin-1-yl)-2-morpholino-7-oxo-[1,2,4]triazolo[1,5-a]pyrimidin-4(7H)-yl)acetamide], the GI50 was 210 nM in assay [1] (setting [4]) and > 10 µM in assay [2] (Homo sapiens). The IC50 in assay [3] was 90 nM.
`CCc1c(N2CCN(C(=O)c3ncccc3O)CC2)c(=O)n2nc(C3=CCOCC3)nc2n1CC(=O)Nc1ccc(C(F)(F)F)cc1F` [Example 92, 2-(2-(3,6-dihydro-2H-pyran-4-yl)-5-ethyl-6-(4-(3-hydroxypicolinoyl)piperazin-1-yl)-7-oxo-[1,2,4]triazolo[1,5-a]pyrimidin-4(7H)-yl)-N-(2-fluoro-4-(trifluoromethyl)phenyl)acetamide]: the values for the GI50 in assay [1] (setting [4]) and in assay [2] (Homo sapiens) were 80 nM and > 10 µM, respectively. Moreover, in assay [3], the IC50 stood at 50 nM.
As for `CCc1c(N2CCN(C(=O)c3nccc(C)c3O)CC2)c(=O)n2nc(C3=CCOCC3)nc2n1CC(=O)Nc1ccc(C(F)(F)F)cc1C` [Example 66, 2-(2-(3,6-dihydro-2H-pyran-4-yl)-5-ethyl-6-(4-(3-hydroxy-4-methylpicolinoyl)piperazin-1-yl)-7-oxo-[1,2,4]triazolo[1,5-a]pyrimidin-4(7H)-yl)-N-(2-methyl-4-(trifluoromethyl)phenyl)acetamide], the GI50 in assay [1] (setting [4]) was 90 nM; in assay [2] (Homo sapiens), > 10 µM. Further, in assay [3], the IC50 turned out to be 40 nM.
For `CCc1c(N2CCN(C(=O)c3nc(N4CCN(C)CC4)ncc3O)CC2)c(=O)n2nc(C3=CCOCC3)nc2n1CC(=O)Nc1ccc(C(F)(F)F)cc1C` [Example 128, 2-(2-(3,6-dihydro-2H-pyran-4-yl)-5-ethyl-6-(4-(5-hydroxy-2-(4-methylpiperazin-1-yl)pyrimidine-4-carbonyl)piperazin-1-yl)-7-oxo-[1,2,4]triazolo[1,5-a]pyrimidin-4(7H)-yl)-N-(2-methyl-4-(trifluoromethyl)phenyl)acetamide], the GI50 is 690 nM in assay [1] (setting [4]) and > 10 µM in assay [2] (Homo sapiens). In addition, in assay [3], the IC50 was determined as 80 nM.
For the molecule `CCc1c(N2CCN(C(=O)c3ncnc(C)c3O)[C@@H]3CC[C@@H]32)c(=O)n2nc(C3=CCOCC3)nc2n1CC(=O)Nc1ccc(C(F)(F)F)cc1Cl` (single isomer, unassigned) [Example 132], the GI50 in assay [1] (read-out: Proliferation Assay SW48 (GI50), SW48 cell line, geometric means of at least 2 determinations) is 490 nM; in assay [2] (DLD1-WRN-KO cell line, geometric means of at least 2 determinations) it was > 10 µM. In assay [3], the IC50 came out at 890 nM.
Consider `CCc1c(N2CCN(C(=O)c3nccc(F)c3O)CC2)c(=O)n2nc(C3=CCOCC3)nc2n1CC(=O)Nc1ccc(C(F)(F)F)cc1C` [Example 63, 2-(2-(3,6-dihydro-2H-pyran-4-yl)-5-ethyl-6-(4-(4-fluoro-3-hydroxypicolinoyl)piperazin-1-yl)-7-oxo-[1,2,4]triazolo[1,5-a]pyrimidin-4(7H)-yl)-N-(2-methyl-4-(trifluoromethyl)phenyl)acetamide], for which the GI50 in assay [1] (setting [4]) was 50 nM; in assay [2] (Homo sapiens) it was > 10 µM. For the same molecule, the IC50 in assay [3] came to 110 nM.
